What is called EC50 is the concentration giving half of the maximal effect.

“Also recorded” adds a separate entry of the source.

Experiment [1] relates to p38 MAPK and NF-κB pathways. Nature of the experiment: Dual labeling assay of the p38 MAPK and NF-κB pathways. Type of experiment: cell-based. To be noted: added alone; two different cell types. The source says: The assay we present here measures, as one of its parameters, p38 activation using immunolocalization of the phosphorylated form of p38 in toxin-treated cells. The assay was developed to be flexible enough to include the simultaneous measurement of other parameters within the same individual cells. Because the signal transduction pathway mediated by the transcription factor NF-κB is also known to be involved in the cell stress response, we included the activation of NF-κB as a second parameter in the same assay.
Multiple cell types, model toxins, and antibodies were tested, and significant stimulation of both pathways was measured in a high-content mode. The phospho-p38 antibodies used in this study were purchased from Sigma Chemical Company (St. Louis, Mo.). We report that at least two cell stress signaling pathways can not only be measured simultaneously, but are differentially responsive to classes of model toxins.

For experiment [2], the system named is microtubule arrays (tubulin-GFP chimera). Nature of the experiment: Microtubule disruption assay, LLCPK cells with tubulin-GFP biosensor. Type of experiment: cell-based, pig. To be noted: 10-500 nM, 12 hour time point. As for the experimental part: For microtubule disruption assays, LLCPK cells stably transfected with a tubulin-GFP biosensor plasmid were plated on 96 well cell culture dishes at 50-60% confluence and cultured overnight at 37° C., 5% CO2. […] The cells were then observed with the cell screening system described above, at a 12 hour time point.

For experiment [3], the system named is caspase-3. The experiment can be described thus: Caspase-3 biosensor apoptosis assay, BHK cells. Type of experiment: cell-based. Particulars: BHK cells transfected with the caspase 3 biosensor. As for the experimental part: (§1) For DNA transfection, BHK cells and MCF-7 cells were cultured to 50-70% confluence in 6 well plates containing 3 ml of minimal Eagle's medium (MEM) with 10% fetal calf serum, 1 mM L-glutamine, 50 μg/ml streptomycin, 50 μg/ml penicillin, 0.1 mM non-essential amino acids, 1 mM sodium pyruvate and 10 μg/ml of bovine insulin (for MCF-7 cell only) at 37° C. in a 5% CO2 incubator for about 36 hours. The cells were washed with serum free MEM media and incubated for 5 hours with 1 ml of transfection mixture containing 1 μg of the appropriate plasmid and 4 μg of lipofectimine (BRL) in the serum free MEM media. Subsequently, the transfection medium was removed and replaced with 3 ml of normal culture media. The transfected cells were maintained in growth medium for at least 16 hours before performing selection of the stable cells based on standard molecular biology methods (Ausubel. et al 1995).
For apoptosis assays, the cells (BHK, MCF-7) stably transfected with the appropriate protease biosensor expression vector were plated on tissue culture treated 96-well plates at 50-60% confluence and cultured overnight at 37° C., 5% CO2. […]
(§2) The biosensor response is measured by quantitating the effective cytoplasm-to-nuclear translocation of the signal (see above). […]

Experiment [4] concerns L929 cells. Nature of the experiment: Apoptosis mitochondrial mass/potential, L929 cells. Particulars: 30 hours. It counts as cell-based, mouse. Here is the method:
(§3) Cells were plated into 96-well plates at densities of 3×10^3 to 1×10^4 cells/well. The following day apoptotic inducers were added at the indicated concentrations and cells were incubated for the indicated time periods (usually 16-30 hours). Cells were stained with 5 μg/ml Hoechst (Molecular Probes, Inc.) and 750 nM MITOTRACKER™ Red (CMXRos, Molecular Probes, Inc.) in fresh medium and incubated for 30 minutes at 37° C. Cells were washed in HBSS and fixed with 3.7% formaldehyde in HBSS at room temperature. Plates were washed with HBSS and permeabilized with 0.5% v/v TRITON™ X-100 in HBSS at room temperature. Cells were washed 2× with HBSS at room temperature and the plate was sealed. For dual labeling of mitochondria, cells were treated with 200 nM MITOTRACKER™ Green and 200 nM MITOTRACKER™ Red for 0.5 hours before fixation.
(§4) The mitochondrial membrane potential is measured by labeling mitochondria with both MITOTRACKER™ Green FM and MITOTRACKER™ Red (Molecular Probes, mc). MITOTRACKER™ Red labeling is proportional to both mass and membrane potential. MITOTRACKER™ Green FM labeling is proportional to mass. The ratio of MITOTRACKER™ Red signal to the MITOTRACKER™ Green FM signal provides a measure of mitochondrial membrane potential (Poot and Pierce, 1999). This ratio normalizes the […]. […]

The subject of experiment [5] is caspase-3. Nature of the experiment: Caspase-3 biosensor apoptosis assay, MCF-7 cells. It counts as cell-based. Particulars: MCF-7 cells; maximum magnitude. As for the experimental part: as §1
For apoptosis assays, the cells (BHK, MCF-7) stably transfected with the appropriate protease biosensor expression vector were plated on tissue culture treated 96-well plates at 50-60% confluence and cultured overnight at 37° C., 5% CO2. Varying concentrations of cis-platin, staurosporine, or paclitaxel in normal culture media were freshly prepared from stock and added to cell culture dishes to replace the old culture media. The cells were then observed with the cell screening system of the present invention at the indicated time points either as live cell experiments or as fixed end-point experiments.
This biosensor is restricted to the cytoplasm by the reactant target sequence. The reactant target sequence is the annexin II cytoskeletal binding domain ([…]) (SEQ ID NO:124) (FIG. 29C) (Eberhard et al. 1997. Mol. Biol. Cell 8:293a). The enzyme recognition site corresponds to two copies of the amino acid sequence DEVD (SEQ ID NO:60) (FIG. 29B), which serves as the recognition site of caspase-3. […]
as §2

Experiment [6] concerns BHK cells. The experiment can be described thus: Apoptosis actin reorganization (f-actin content), BHK cells. Particulars: 30 hours. Type of experiment: cell-based. As for the experimental part: (§5) Cells were plated in 96-well plates at densities of 3×10^3 to 1×10^4 cells/well. The following day apoptotic inducers were added at indicated concentrations. Cells were incubated for the indicated time periods (usually 16-30 hours). The next day the medium was removed and cells were stained with 5 μg/ml Hoechst (Molecular Probes, Inc.) in fresh medium and incubated for 30 minutes at […]. Cells were washed in HBSS and fixed with 3.7% formaldehyde in HBSS at room temperature. Plates were washed with HBSS and permeabilized with 0.5% v/v Triton X-100 in HBSS at room temperature. Plates were washed in HBSS and stained with 100 μl of 1 U/ml of Alexa 488 Phalloidin stock (100 μl/well, Molecular Probes, Inc.). Cells were washed 2×with HBSS at RT and the plate was sealed.
(§6) Quantitation of f-actin content was accomplished by measuring the intensity of phalloidin staining around the nucleus. This was determined to be a reasonable approximation of a full cytoplasmic average of the intensity. The mask used to approximate this cytoplasmic measure was derived from the nuclear mask defined by the Hoechst stain. Derivation was accomplished by combinations of erosions and dilations.

Experiment [7] relates to BHK cells. The experiment can be described thus: Apoptosis nuclear morphology, BHK cells. Type of experiment: cell-based. To be noted: 30 hours. Here is the method:
(§7) Cells were plated into 96-well plates at densities of 3×10^3 to 1×10^4 cells/well. The following day apoptotic inducers were added at indicated concentrations and cells were incubated for indicated time periods (usually 16-30 hours). The next day medium was removed and cells were stained with 5 μg/ml Hoechst (Molecular Probes, Inc.) in fresh medium and incubated for 30 minutes at 37° C. Cells were washed in Hank's Balanced Salt Solution (HBSS) and fixed with 3.7% formaldehyde in HBSS at room temperature. Cells were washed 2×with HBSS at room temperature and the plate was sealed.
(§8) Quantitation of changes in nuclear morphology upon induction of apoptosis was accomplished by (1) measuring the effective size of the nuclear region; and (2) measuring the degree of convolution of the perimeter.

Experiment [8] deals with MCF-7 cells. The experiment can be described thus: Apoptosis actin reorganization (f-actin content), MCF-7 cells. It counts as cell-based. Particulars: 30 hours. As for the experimental part:
as §5, §6

The subject of experiment [9] is MCF-7 cells. Nature of the experiment: Apoptosis mitochondrial mass/potential, MCF-7 cells. Particulars: 30 hours. Type of experiment: cell-based. Here is the method: as §3, §4
Experiment [10] deals with L929 cells. The experiment can be described thus: Apoptosis actin reorganization (f-actin content), L929 cells. To be noted: 30 hours. It counts as cell-based, mouse. As for the experimental part: as §5, §6
For experiment [11], the system named is MCF-7 cells. Nature of the experiment: Apoptosis nuclear morphology, MCF-7 cells. Type of experiment: cell-based. To be noted: 30 hours. As for the experimental part: as §7, §8
In experiment [12] the test system is L929 cells. The experiment can be described thus: Apoptosis nuclear morphology, L929 cells. It counts as cell-based, mouse. To be noted: 30 hours. As for the experimental part:
as §7, §8

Experiment [13] deals with BHK cells. The experiment can be described thus: Apoptosis mitochondrial mass/potential, BHK cells. It counts as cell-based. Particulars: 30 hours. As for the experimental part: as §3, §4
Experiment [14] deals with NF-κB. The experiment can be described thus: NF-κB immunolocalization in toxin treated 3T3 cells. It counts as cell-based. The source says:
(§9) For further studies, we characterized endogenous NF-κB activation by immunolocalization in toxin treated cells. The NF-κB antibodies used in this study were purchased from Santa Cruz Biotechnology, Inc. (Santa Cruz, Calif.), and secondary antibodies are from Molecular Probes (Eugene, Oreg.).
(§10) For the 3T3 and SNB19 cell types, we determined the effective concentrations that yield response levels of 50% of the maximum (EC50), expressed in units of mass per volume (ng/ml) and units of molarity. Based on molecular weights of 17 kD for both TNFα and IL-1α, the EC50 levels for these two compounds with 3T3 and SNB19 cell types are given in units of molarity in Table 1.
(§11) For these experiments, either 10 or 100 TNFα-treated 3T3 or SNB19 cells/well were tested. On the basis of the standard deviations measured for these samples, and by taking t-values for the student's t-test, we have estimated the minimum detectable doses for each case of cell type, compound, number of cells per well, and for different choices of how many wells are sampled per condition. The latter factor determines the number of degrees of freedom that are provided in the sample of data. Increasing the number of wells from 4 to 16, and increasing the number of cells per well from 10 to 100, improves the minimum detectable doses considerably. […] If the false positive rate is relaxed to 20%, a concentration of approximately half that value can be detected (0.83 ng/ml). One hundred cells can conveniently be sampled over a cell culture surface area of less than 1 mm^2.

In experiment [15] the test system is NF-κB. Nature of the experiment: NF-κB immunolocalization in toxin treated SNB19 cells. Type of experiment: cell-based. Particulars: based on molecular weights of 17 kD, read-out: EC50 (NF-κB activation).
From the text: as §9, §10
as §11, with “data.” for “data. Increasing the number of wells from 4 to 16, and increasing the number of cells per well from 10 to 100, improves the minimum detectable doses considerably.”, “One hundred cells can conveniently be sampled over a cell culture surface area of less than 1 mm^2.” left out

For the compound `COc1ccc(C[C@H]2NC[C@H](O)[C@H]2OC(C)=O)cc1` [Anisomycin], the “differential response of the p38 MAPK and NF-κB pathways” value (shortened to “differential response”) in [1] was “activators of specific pathways”.

Turning to `C=CC[C@@H](CC/C(C)=C/C=C/CC/C=C\[C@@H]1CSC([C@@H]2C[C@@H]2C)=N1)OC` [Curacin A], the “Response of microtubule arrays” value in experiment [2] is listed as “Destabilization”.

Regarding `COC(=O)Nc1nc2ccc(C(=O)c3cccs3)cc2[nH]1` [Nocodazole], in experiment [2], the “Response of microtubule arrays” value is on record as “Destabilization”.

Consider `CC[C@]1(O)C[C@@H]2CN(CCc3c([nH]c4ccccc34)[C@@](C(=O)OC)(c3cc4c(cc3OC)N(C)[C@H]3[C@@](O)(C(=O)OC)[C@H](OC(C)=O)[C@]5(CC)C=CCN6CC[C@]43[C@@H]65)C2)C1` [Vinblastine], for which, in experiment [2], the “Response of microtubule arrays” value is reported as “Destabilization”.

As for `N.N.[Cl][Pt][Cl]` [cis-platin], the “caspase activation reported by the biosensor” value in [3] is recorded as “accumulation of fluorescence in the nucleus”.

Take `CN[C@@H]1C[C@H]2O[C@@](C)([C@@H]1OC)n1c3ccccc3c3c4c(c5c6ccccc6n2c5c31)C(=O)NC4` [staurosporine]: the “mitochondrial changes (mass / membrane potential)” value is reported as “clear increase in mitochondrial mass; also recorded: increases in mitochondrial mass” in experiment [4]; “consistent decrease in mitochondrial membrane potential; also recorded: a decrease in membrane potential” in [9]; “either a decrease in membrane potential at lower concentrations of staurosporine, or an increase in mass at higher concentrations of staurosporine; also recorded: increases in mitochondrial mass” in experiment [13]. The “magnitude of caspase activation relative to comparator” value in [5] was “approximately one-half that demonstrated with cis-platin in BHK cells”. Besides, the “change in peri-nuclear f-actin content” value in experiment [6] is “dose-dependent increase in f-actin”; in experiment [6] (listed as Staurosporine), “induced increases in f-actin”; in [8] it was “either a decrease or increase depending on the concentration of staurosporine”; in experiment [8] (listed as Staurosporine), “concentration-dependent response”; in experiment [10], “dose-dependent increases in f-actin content”; in experiment [10] (listed as Staurosporine), “induced increases in f-actin”. Also, the “change in nuclear morphology” value in experiment [7] was “concentration dependent changes”; in [7] (listed as Staurosporine), “nuclear condensation at lower doses and nuclear fragmentation at higher doses”; in experiment [11], “nuclear condensation”; in experiment [12], “dose-dependent change in nuclear morphology”; in experiment [12] (listed as Staurosporine) it was “classic nuclear fragmentation”.

Take “IL-1α: model toxin, molecular weight 17 kD”: in [14] (based on molecular weights of 17 kD), the “EC50 (NF-κB activation)” value is on record as 0.24 10^−12 moles/liter. Also, the EC50 in [15] is 59 pM. The “differential response” value in experiment [1] is listed as “activators of specific pathways”.

In the case of tumor necrosis factor [TNFα], the “EC50 value (NF-κB activation)” value in [14] turned out to be 0.15 ng/mL. The concentration giving a half-maximal response (EC50) was 8.8 pM in experiment [14] (based on molecular weights of 17 kD, read-out: EC50 (NF-κB activation)) and 5.9 pM in experiment [15]. Further, in [1], the “differential response” value is “activators of specific pathways”.
